# From PubChem BioAssay (NCI)
#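 A five-concentration, 48-hour dose response in 96-well plates underlies each endpoint, interpolated linearly between surrounding concentrations. TGI: total growth inhibition.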
# Experiments:
# Test in all cases: growth of human tumour cells (NCI), 48 h
# [1] = test system: UACC-257 melanoma
# [2] = test system: CAKI-1 renal
# [3] = test system: HCT-116 colon
# [4] = test system: MDA-N
# [5] = test system: COLO 205 colon
# [6] = test system: K-562 leukemia
# [7] = test system: OVCAR-5 ovarian
# [8] = test system: HT29 colon
# [9] = test system: T-47D breast
# [10] = test system: MDA-MB-435
# [11] = test system: UACC-62 melanoma
# [12] = test system: SK-OV-3 ovarian
# [13] = test system: SK-MEL-5 melanoma
# [14] = test system: PC-3 prostate
# [15] = test system: SNB-75 CNS
# [16] = test system: HS 578T breast
# [17] = test system: BT-549 breast
# [18] = test system: M14 melanoma
# [19] = test system: OVCAR-8 ovarian
# [20] = test system: 786-0 renal
# [21] = test system: A549 NSCLC
# [22] = test system: UO-31 renal
# [23] = test system: NCI-H522 lung
# [24] = test system: NCI/ADR-RES ovarian
# [25] = test system: OVCAR-4 ovarian
# [26] = test system: ACHN renal
# [27] = test system: SW-620 colon
# [28] = test system: HL-60(TB) leukemia
# [29] = test system: HOP-92 NSCLC
# [30] = test system: SN12C renal
# [31] = test system: MALME-3M melanoma
# [32] = test system: SF-268 CNS
# [33] = test system: IGROV1 ovarian
# [34] = test system: MCF7 breast
# [35] = test system: KM12 colon
# [36] = test system: SF-295 CNS
# [37] = test system: TK-10 renal
# [38] = test system: MDA-MB-231 breast
# [39] = test system: SF-539 CNS
# [40] = test system: EKVX NSCLC
# [41] = test system: NCI-H460 lung
# [42] = test system: RXF 393 renal
# [43] = test system: CCRF-CEM leukemia
# [44] = test system: A498 renal
# [45] = test system: NCI-H23 lung
# [46] = test system: SR leukemia
# [47] = test system: LOX IMVI melanoma
# [48] = test system: OVCAR-3 ovarian
# [49] = test system: HCT-15 colon
# [50] = test system: HOP-62 NSCLC
# [51] = test system: NCI-H226 lung
# [52] = test system: SK-MEL-28 melanoma
# [53] = test system: HCC-2998 colon
# [54] = test system: MOLT-4 leukemia
# [55] = test system: SK-MEL-2 melanoma
# [56] = test system: DU-145 prostate
# [57] = test system: U251 CNS
# [58] = test system: SNB-19 CNS
structure (smiles),measurement,setting,value
COc1cc(S(=O)(=O)Nc2nc(-c3ccc(N=Cc4cccs4)cc3)cs2)ccc1Cl,TGI,[1],> 100 µM
same,TGI,[2],> 100 µM
same,TGI,[3],> 100 µM
same,TGI,[4],> 100 µM
same,TGI,[5],> 100 µM
same,TGI,[6],> 100 µM
same,TGI,[7],> 100 µM
same,TGI,[8],> 100 µM
same,TGI,[9],> 100 µM
same,TGI,[10],> 100 µM
same,TGI,[11],48.7 µM
same,TGI,[12],> 100 µM
same,TGI,[13],> 100 µM
same,TGI,[14],> 100 µM
same,TGI,[15],> 100 µM
same,TGI,[16],> 100 µM
same,TGI,[17],> 100 µM
same,TGI,[18],> 100 µM
same,TGI,[19],> 100 µM
same,TGI,[20],> 100 µM
same,TGI,[21],> 100 µM
same,TGI,[22],> 100 µM
same,TGI,[23],> 100 µM
same,TGI,[24],> 100 µM
same,TGI,[25],> 100 µM
same,TGI,[26],> 100 µM
same,TGI,[27],> 100 µM
same,TGI,[28],> 100 µM
same,TGI,[29],> 100 µM
same,TGI,[30],64.1 µM
same,TGI,[31],> 100 µM
same,TGI,[32],> 100 µM
same,TGI,[33],> 100 µM
same,TGI,[34],> 100 µM
same,TGI,[35],> 100 µM
same,TGI,[36],> 100 µM
same,TGI,[37],> 100 µM
same,TGI,[38],> 100 µM
same,TGI,[39],> 100 µM
same,TGI,[40],> 100 µM
same,TGI,[41],> 100 µM
same,TGI,[42],49.6 µM
same,TGI,[43],> 100 µM
same,TGI,[44],> 100 µM
same,TGI,[45],> 100 µM
same,TGI,[46],57 µM
same,TGI,[47],> 100 µM
same,TGI,[48],78.6 µM
same,TGI,[49],> 100 µM
same,TGI,[50],> 100 µM
same,TGI,[51],> 100 µM
same,TGI,[52],> 100 µM
same,TGI,[53],> 100 µM
same,TGI,[54],98.7 µM
same,TGI,[55],> 100 µM
same,TGI,[56],> 100 µM
same,TGI,[57],> 100 µM
same,TGI,[58],> 100 µM
